Data taken from patent US20040259948A1, “Reciprocal regulation of inflammation and lipid metabolism by liver X receptors” (priority 2003, published 2004).

How the values were obtained:
[1] = system: human peripheral blood mononuclear cells; test: TNF-induced gene expression in human peripheral blood mononuclear cells; assay type: cell-based; conditions: TNF 6 hours; real time qPCR
Description: Activation of LXR by synthetic ligands inhibits inflammatory gene expression in multiple human cell types (FIG. 7A-C). TNFα plays a role in the induction of inflammatory mediators in during inflammation. Cells were treated for 6 hours with TNF as indicated and gene expression was measured by real time qPCR.

[2] = system: Thioglycolate-elicited peritoneal macrophages; test: DNA microarray analysis of LPS-activated macrophages; assay type: cell-based, mice; conditions: 2 μM 18 h, then 100 ng/ml LPS 6 h
Description: DNA microarrays were used to further examine the effect of LXR activation on LPS-induced gene transcription. […] Cells were harvested 6 hours after LPS stimulation and total RNA from these samples was used to probe Affymetrix U74Av2 arrays. The array data were analyzed using GeneSpring software to identify genes regulated by the ligand in the cells. […] Genes involved in inflammation or lipid metabolism were selected based on ligand-dependent changes in expression in the cells. […] DNA microarray analysis. […] Total RNA was reverse transcribed using a T7-(dT)24 primer (Genset Corp.). Biotin-labeled cRNA was generated using the Bioarray High Yield Transcript Labeling Kit (ENZO). Samples were hybridized to single Affymetrix Murine U74Av2 microarrays and visualized by the PAN Facility at Stanford University. Data was analyzed using GeneSpring and GeneChip Analysis Suite software (Affymetrix). Only those results determined by the software to represent significant expression differences in the presence or absence of ligand are presented. Positive results were defined as ligand-dependent changes in expression in wild-type cells.

[3] = system: Thioglycolate-elicited peritoneal macrophages; test: Macrophage response to E. coli infection: iNOS mRNA and NO production; assay type: cell-based, murine; conditions: 18 h, pretreated with 1 μM ligand
Description: Thioglycolate-elicited peritoneal macrophages were infected in vitro with Escherichia coli. After 18 hours, expression of inducible nitric oxide synthase (iNOS) mRNA and nitric oxide (NO) production were assessed. […] Cells were then infected with E. coli (A, B) or treated with 100 ng/ml LPS(C, D, E) as indicated. After 18 h, NO production was determined using a colorimetric assay (A, D), or mRNA levels were determined using real-time quantitative PCR assays (B, C, E).
Thioglycolate-elicited peritoneal macrophages were cultured in RPMI containing 10% fetal bovine serum (FBS). […] For ligand treatments, cells were in cultured medium supplemented with 5% lipoprotein-deficient serum (LPDS) and ligands for 18 h before stimulation. […] NO production was determined spectrophotometrically (Castrillo, A. et al. 2000 Mol Cell Biol 20:1692-1698).
Total RNA was extracted using Trizol reagent (Life Technologies, Inc.). […] Real-time quantitative PCR (TaqMan) analysis was performed using an Applied Biosystems 7700 sequence detector.

[4] = system: Thioglycolate-elicited murine peritoneal macrophages; test: LPS-stimulated macrophages: NO production, iNOS and ABCA1 mRNA; assay type: cell-based
Description: To investigate the role of LXRs in host defense, the influence of LXR agonists on macrophage responses to bacterial pathogens was tested. Thioglycolate-elicited peritoneal macrophages were infected in vitro with Escherichia coli. After 18 hours, expression of inducible nitric oxide synthase (iNOS) mRNA and nitric oxide (NO) production were assessed. […] This repression occurs over the same concentration range needed to induce the established LXR target gene ATP-binding cassette transporter A1 (ABCA1). A, LXR agonist inhibits nitrite production in response to bacterial infection. […] Cells were then infected with E. coli (A, B) or treated with 100 ng/ml LPS(C, D, E) as indicated. After 18 h, NO production was determined using a colorimetric assay (A, D), or mRNA levels were determined using real-time quantitative PCR assays (B, C, E). […] The inhibitory effect of LXR agonists on iNOS expression was dose-dependent and occurred over the same range of concentration as that required to induce ATP-binding cassette transporter A1 (ABCA1) (FIGS. 1D and E).
The anti-inflammatory activity of LXR ligands can be separated from the induction of lipid metabolism genes such as ABCA1. Murine peritoneal macrophages were treated with LPS to induce iNOS gene expression (FIG. 8A) and were assayed for ABCA1 mRNA by real time qPCR (FIG. 8B). NOx production was measured by colorimetric assay. […] The identification of LXR agonists with only anti-inflammatory activity should greatly increase the usefulness of such compounds as therapeutic agents, because they lack the unwanted side effects on lipid metabolism such as elevation of triglyceride levels.
Cell culture and transfections. Thioglycolate-elicited peritoneal macrophages were cultured in RPMI containing 10% fetal bovine serum (FBS). RAW 264.7 cells were cultured in DMEM containing 10% FBS. For ligand treatments, cells were in cultured medium supplemented with 5% lipoprotein-deficient serum (LPDS) and ligands for 18 h before stimulation. Bacterial infection in vitro was performed as described (Chen, L. M. et al. 1996 Mol Microbiol 21:1101-1115). Transient transfections of RAW 264.7 cells were performed in triplicate in 48-well plates using Superfect reagent (Life Technologies). After transfection, cells were incubated in medium containing 10% LPDS and the indicated ligands for 18 h before stimulation with LPS for an additional 18 h. Luciferase activity was normalized to β-galactosidase activity. NO production was determined spectrophotometrically (Castrillo, A. et al. 2000 Mol Cell Biol 20:1692-1698).
RNA and protein analysis. Total RNA was extracted using Trizol reagent (Life Technologies, Inc.). Northern blot analysis was carried out as described using radiolabeled cDNA probes (Tontonoz, P. et al. 1998 Cell 93:241-252). Real-time quantitative PCR (TaqMan) analysis was performed using an Applied Biosystems 7700 sequence detector. Two-step real-time PCR was performed as described (Joseph, S. B. et al. 2002 J Biol Chem 277:11019-11025). The primers and probes used are as follows: […]

[5] = 100 ng/ml LPS, 18 h, real-time quantitative PCR, FIG. 1E

O=C(O)Cc1cccc(OCCCN(Cc2cccc(C(F)(F)F)c2Cl)CC(c2ccccc2)c2ccccc2)c1 [GW3965]
TNF-induced gene expression [1]: inhibited
expression of cluster of genes of macrophage innate immune response (iNOS, COX-2, IL-6, IL-1β, G-CSF, MCP-1, MCP-3, MIP-1β, IP-10, MMP-9) [2]: inhibited
expression of genes involved in lipid metabolism (incl. Abca1) [2]: most highly induced
expression of genes involved in other cellular processes [2]: not significantly altered
Change: Apoptosis inhibitor 2 ([2]; apoptosis gene): 1.10
Change: Apoptosis inhibitor 3 ([2]; apoptosis gene): 0.83
Change: Apoptosis signal-regulating kinase 1 ([2]; apoptosis gene): 0.99
Change: Apoptosis-inducing factor AIF (Aif) ([2]; apoptosis gene): 0.83
Change: Bc1-10 protein ([2]; apoptosis gene): 1.13
Change: Bc12-associated X protein ([2]; apoptosis gene): 1.15
Change: Bc12-like ([2]; apoptosis gene): 0.80
Change: Bc12 homologous antagonist/killer ([2]; apoptosis gene): 0.94
Change: Caspase 2 ([2]; apoptosis gene): 1.10
Change: Caspase 3, apoptosis related cysteine protease ([2]; apoptosis gene): 1.40
Change: Caspase 7 ([2]; apoptosis gene): 0.94
Change: Caspase 9 ([2]; apoptosis gene): 0.79
Change: Caspase 11 ([2]; apoptosis gene): 0.92
Change: E1B 19 K/Bc1-2-binding protein homolog (Nip3) ([2]; apoptosis gene): 1.14
Change: Avian reticuloendotheliosis viral (v-rel) oncogene related B ([2]; cell-cycle gene): 1.21
Change: Cell division cycle 42 ([2]; cell-cycle gene): 1.06
Change: Cyclin 1 ([2]; cell-cycle gene): 1.05
Change: Cyclin B2 ([2]; cell-cycle gene): 0.68
Change: Cyclin F ([2]; cell-cycle gene): 0.72
Change: Cyclin G2 ([2]; cell-cycle gene): 0.83
Change: Cyclin dependent kinase inhibitor 2B (Cdkn2b) ([2]; cell-cycle gene): 1.15
Change: Cyclin-dependent kinase 5 ([2]; cell-cycle gene): 1.00
Change: Cyclin-dependent kinase inhibitor 1A (P21) ([2]; cell-cycle gene): 0.85
Change: Cyclin-dependent kinase inhibitor 1C (P57) ([2]; cell-cycle gene): 1.28
Change: Early growth response 2 ([2]; cell-cycle gene): 0.96
Change: Growth arrest specific 1 ([2]; cell-cycle gene): 0.91
Change: Growth arrest specific 2 ([2]; cell-cycle gene): 0.92
Change: Growth arrest specific 7 ([2]; cell-cycle gene): 1.22
Change: Guanine Nucleotide Regulatory Protein ([2]; cell-cycle gene): 1.12
Change: Met proto-oncogene ([2]; cell-cycle gene): 1.12
Change: Proliferating cell nuclear antigen ([2]; cell-cycle gene): 1.13
iNOS activity (NO / nitrite production) ([3]; colorimetric assay): reduced
iNOS mRNA ([3]; real-time quantitative PCR): significantly reduced
nitrite production, dose response ([4]; 100 ng/ml LPS, 18 h, colorimetric assay, FIG. 1D): Dose-dependent inhibition
ABCA1 mRNA expression, dose response [4, 5]: Reciprocal dose-dependent regulation
iNOS mRNA expression, dose response [4, 5]: Reciprocal dose-dependent regulation
inhibition of inflammatory genes (NOx production), T1317 compared with GW3965 ([4]; LPS, increasing doses, colorimetric assay, FIG. 8A): more effective inhibitor
